Reference: patent publication US20260207572A1, “METHODS AND COMPOSITIONS FOR TREATMENT OF SUBJECTS WITH HEPATIC IMPAIRMENTS” (ELEVAR THERAPEUTICS, INC., priority 2022, published 2026)
Where two headings read alike, the source gives them in different places.

Test: Phase 1 single-dose plasma pharmacokinetics in subjects with normal hepatic function, mild or moderate hepatic impairment
Format: in vivo, human
Settings: for Plasma concentration, Arithmetic Mean / Plasma concentration, Median: Predose; for AUC(0-t) / AUC(0-inf) / Cmax / Vd/F / half-life / Tmax / concentration at 0.5 h / concentration at 1 h / concentration at 2 h / concentration at 3 h / concentration at 4 h / concentration at 6 h / concentration at 8 h / concentration at 12 h / concentration at 16 h / concentration at 24 h / concentration at 36 h / concentration at 48 h: human, plasma, 200 mg
Description: Patients: 27 subjects were enrolled within the following groups based on their Child-Pugh (CP) classification score: • Group 1: Matched-control healthy subjects with normal hepatic function; • Group 2: Subjects with mild hepatic impairment (CP Class A, score of 5 or 6); • Group 3: Subjects with moderate hepatic impairment (CP Class B, score of 7 to 9).
A parallel design strategy was adopted for the hepatic impairment groups. Each matched-control healthy subject (Group 1) was enrolled following the enrollment of a mild and/or moderate hepatic impairment subject and was demographically matched by age (±10 years), BMI (±20%), and sex to the enrolled hepatic impairment subject(s). Subjects with normal hepatic function were not matched to more than 1 hepatically-impaired subject within an impairment group; however, subjects with normal hepatic function could be matched to 1 subject from more than 1 hepatic impairment group.
Other noncompartmental parameters could be reported.
The paired t-test was performed separately for each hepatic impairment group and the corresponding matched healthy controls. Estimates of geometric mean ratios in primary PK parameters between each level of impaired hepatic function versus the matched healthy controls were presented along with the corresponding 90% confidence intervals (CIs) for the geometric mean ratios. The p-value assessing the difference between each impairment group and the healthy control group was presented.
The PK analysis was conducted by Covance Early Clinical Biometrics using WinNonlin Version 8.1.

[1] = Mild Hepatic Impairment, 200 mg single oral dose
[2] = Moderate Hepatic Impairment, 200 mg single oral dose
[3] = Normal Hepatic Function, 200 mg single oral dose
[4] = po, Mild Hepatic Impairment, 200 mg single oral dose, read-out: Plasma concentration, Arithmetic Mean
[5] = po, Mild Hepatic Impairment, 200 mg single oral dose, read-out: Plasma concentration, Geometric Mean
[6] = po, Mild Hepatic Impairment, 200 mg single oral dose, read-out: Plasma concentration, Median

N#CC1(c2ccc(NC(=O)c3cccnc3NCc3ccncc3)cc2)CCCC1 [Rivoceranib, N-[4-(1-cyanocyclopentyl)phenyl]-2-{[(pyridin-4-yl)methyl]amino} pyridine-3-carboxamide]
AUC0-∞, Geometric Mean [1]: 2308.66 ng·h/mL
CL/F, Arithmetic Mean [1]: 103.183 L/h
CL/F, Geometric Mean [1]: 86.630 L/h
CL/F, Median [1]: 93.423 L/h
Plasma concentration, Arithmetic Mean [1]: 0.00 ng/mL
Plasma concentration, Median [1]: 0.00 ng/mL
CL/F, Arithmetic Mean [2]: 89.904 L/h
CL/F, Geometric Mean [2]: 81.335 L/h
CL/F, Median [2]: 77.251 L/h
Plasma concentration, Arithmetic Mean [2]: 0.00 ng/mL
Plasma concentration, Median [2]: 0.00 ng/mL
CL/F, Arithmetic Mean [3]: 68.404 L/h
CL/F, Geometric Mean [3]: 65.546 L/h
CL/F, Median [3]: 69.489 L/h
Plasma concentration, Arithmetic Mean [3]: 0.00 ng/mL
Plasma concentration, Median [3]: 0.00 ng/mL
AUC(0-t) (oral, Mild vs Normal: Mild hepatic impairment, paired analysis, read-out: AUC0-t, Geometric Least Squares Mean, Test): 2080 ng·h/mL
AUC(0-inf) (oral, Mild vs Normal: Mild hepatic impairment, paired analysis, read-out: AUC0-∞, Geometric Least Squares Mean, Test): 2520 ng·h/mL
Cmax (oral, Mild vs Normal: Mild hepatic impairment, paired analysis, read-out: Cmax, Geometric Least Squares Mean, Test): 182 ng/mL
AUC(0-t) (oral, Mild vs Normal: matched Normal hepatic function, paired analysis, read-out: AUC0-t, Geometric Least Squares Mean, Reference): 2820 ng·h/mL
AUC(0-inf) (oral, Mild vs Normal: matched Normal hepatic function, paired analysis, read-out: AUC0-∞, Geometric Least Squares Mean, Reference): 3020 ng·h/mL
Cmax (oral, Mild vs Normal: matched Normal hepatic function, paired analysis, read-out: Cmax, Geometric Least Squares Mean, Reference): 303 ng/mL
AUC(0-t) (oral, Moderate vs Normal: Moderate hepatic impairment, paired analysis, read-out: AUC0-t, Geometric Least Squares Mean, Test): 2380 ng·h/mL
AUC(0-inf) (oral, Moderate vs Normal: Moderate hepatic impairment, paired analysis, read-out: AUC0-∞, Geometric Least Squares Mean, Test): 2430 ng·h/mL
Cmax (oral, Moderate vs Normal: Moderate hepatic impairment, paired analysis, read-out: Cmax, Geometric Least Squares Mean, Test): 210 ng/mL
AUC(0-t) (oral, Moderate vs Normal: matched Normal hepatic function, paired analysis, read-out: AUC0-t, Geometric Least Squares Mean, Reference): 2550 ng·h/mL
AUC(0-inf) (oral, Moderate vs Normal: matched Normal hepatic function, paired analysis, read-out: AUC0-∞, Geometric Least Squares Mean, Reference): 2980 ng·h/mL
Cmax (oral, Moderate vs Normal: matched Normal hepatic function, paired analysis, read-out: Cmax, Geometric Least Squares Mean, Reference): 247 ng/mL
AUC(0-t) (po, Mild Hepatic Impairment, 200 mg single oral dose, read-out: AUC0-t, Arithmetic Mean): 2550 ng·h/mL
AUC(0-t) (po, Mild Hepatic Impairment, 200 mg single oral dose, read-out: AUC0-t, Geometric Mean): 2070 ng·h/mL
AUC(0-t) (po, Mild Hepatic Impairment, 200 mg single oral dose, read-out: AUC0-t, Median): 1940 ng·h/mL
AUC(0-inf) (po, Mild Hepatic Impairment, 200 mg single oral dose, read-out: AUC0-∞, Arithmetic Mean): 2840 ng·h/mL
AUC(0-inf) (po, Mild Hepatic Impairment, 200 mg single oral dose, read-out: AUC0-∞, Geometric Mean): 2310 ng·h/mL
AUC(0-inf) (po, Mild Hepatic Impairment, 200 mg single oral dose, read-out: AUC0-∞, Median): 2140 ng·h/mL
Cmax (po, Mild Hepatic Impairment, 200 mg single oral dose, read-out: Cmax, Arithmetic Mean): 291 ng/mL
Cmax (po, Mild Hepatic Impairment, 200 mg single oral dose, read-out: Cmax, Geometric Mean): 182 ng/mL
Cmax (po, Mild Hepatic Impairment, 200 mg single oral dose, read-out: Cmax, Median): 202 ng/mL
Vd/F (po, Mild Hepatic Impairment, 200 mg single oral dose, read-out: VZ/F, Arithmetic Mean): 1830 L
Vd/F (po, Mild Hepatic Impairment, 200 mg single oral dose, read-out: VZ/F, Geometric Mean): 1400 L
Vd/F (po, Mild Hepatic Impairment, 200 mg single oral dose, read-out: VZ/F, Median): 1100 L
half-life (po, Mild Hepatic Impairment, 200 mg single oral dose, read-out: t1/2, Arithmetic Mean (converted)): 13.3 ± 5.58 h
half-life (po, Mild Hepatic Impairment, 200 mg single oral dose, read-out: t1/2, Geometric Mean (converted)): 12.4 h
half-life (po, Mild Hepatic Impairment, 200 mg single oral dose, read-out: t1/2, Median (converted)): 12.3 h
Tmax (po, Mild Hepatic Impairment, 200 mg single oral dose, read-out: tmax, Arithmetic Mean): 3.6 h
Tmax (po, Mild Hepatic Impairment, 200 mg single oral dose, read-out: tmax, Geometric Mean): 2.8 h
Tmax (po, Mild Hepatic Impairment, 200 mg single oral dose, read-out: tmax, Median): 2.5 h
concentration at 0.5 h [4]: 41.5 ng/mL
concentration at 0.5 h [5]: 29.4 ng/mL
concentration at 0.5 h [6]: 30.2 ng/mL
concentration at 1 h [4]: 178 ng/mL
concentration at 1 h [5]: 112 ng/mL
concentration at 1 h [6]: 149 ng/mL
concentration at 2 h [4]: 279 ng/mL
concentration at 2 h [5]: 165 ng/mL
concentration at 2 h [6]: 194 ng/mL
concentration at 3 h [4]: 220 ng/mL
concentration at 3 h [5]: 138 ng/mL
concentration at 3 h [6]: 155 ng/mL
concentration at 4 h [4]: 164 ng/mL
concentration at 4 h [5]: 112 ng/mL
concentration at 4 h [6]: 95.8 ng/mL
concentration at 6 h [4]: 122 ng/mL
concentration at 6 h [5]: 95.4 ng/mL
concentration at 6 h [6]: 91.3 ng/mL
concentration at 8 h [4]: 96 ng/mL
concentration at 8 h [5]: 77.8 ng/mL
concentration at 8 h [6]: 68.5 ng/mL
concentration at 12 h [4]: 66.6 ng/mL
concentration at 12 h [5]: 54.9 ng/mL
concentration at 12 h [6]: 43.9 ng/mL
concentration at 16 h [4]: 54.3 ng/mL
concentration at 16 h [5]: 45.3 ng/mL
concentration at 16 h [6]: 39.6 ng/mL
concentration at 24 h [4]: 34.5 ng/mL
concentration at 24 h [5]: 29 ng/mL
concentration at 24 h [6]: 26 ng/mL
concentration at 36 h [4]: 16.1 ng/mL
concentration at 36 h [5]: 15.2 ng/mL
concentration at 36 h [6]: 13.8 ng/mL
concentration at 48 h [4]: 8.5 ng/mL
concentration at 48 h [5]: 9.97 ng/mL
concentration at 48 h [6]: 7.26 ng/mL
AUC(0-t) (po, Moderate Hepatic Impairment, 200 mg single oral dose, read-out: AUC0-t, Arithmetic Mean): 2590 ng·h/mL
AUC(0-t) (po, Moderate Hepatic Impairment, 200 mg single oral dose, read-out: AUC0-t, Geometric Mean): 2380 ng·h/mL
AUC(0-t) (po, Moderate Hepatic Impairment, 200 mg single oral dose, read-out: AUC0-t, Median): 2450 ng·h/mL
AUC(0-inf) (po, Moderate Hepatic Impairment, 200 mg single oral dose, read-out: AUC0-∞, Arithmetic Mean): 2660 ng·h/mL
AUC(0-inf) (po, Moderate Hepatic Impairment, 200 mg single oral dose, read-out: AUC0-∞, Geometric Mean): 2460 ng·h/mL
AUC(0-inf) (po, Moderate Hepatic Impairment, 200 mg single oral dose, read-out: AUC0-∞, Median): 2590 ng·h/mL
Cmax (po, Moderate Hepatic Impairment, 200 mg single oral dose, read-out: Cmax, Arithmetic Mean): 239 ng/mL
Cmax (po, Moderate Hepatic Impairment, 200 mg single oral dose, read-out: Cmax, Geometric Mean): 210 ng/mL
Cmax (po, Moderate Hepatic Impairment, 200 mg single oral dose, read-out: Cmax, Median): 180 ng/mL
Vd/F (po, Moderate Hepatic Impairment, 200 mg single oral dose, read-out: VZ/F, Arithmetic Mean): 2250 L
Vd/F (po, Moderate Hepatic Impairment, 200 mg single oral dose, read-out: VZ/F, Geometric Mean): 2020 L
Vd/F (po, Moderate Hepatic Impairment, 200 mg single oral dose, read-out: VZ/F, Median): 2090 L
half-life (po, Moderate Hepatic Impairment, 200 mg single oral dose, read-out: t1/2, Arithmetic Mean (converted)): 18.7 ± 3.97 h
